# From US20250213533A1 (GH RESEARCH IRELAND LIMITED, priority 2022, published 2025)
# Molecular target: T1, 5-HT1A receptors (Homo sapiens, UniProt P08908)
# T1 construct: 5-HT1A and 5-HT2A receptors in post-mortem human brain tissue from the hippocampus and frontal cortex, respectively; tissue Edinburgh Sudden Death Brain Bank; host or cells: post-mortem human hippocampus membranes
# T1 sequence (P08908 1-422): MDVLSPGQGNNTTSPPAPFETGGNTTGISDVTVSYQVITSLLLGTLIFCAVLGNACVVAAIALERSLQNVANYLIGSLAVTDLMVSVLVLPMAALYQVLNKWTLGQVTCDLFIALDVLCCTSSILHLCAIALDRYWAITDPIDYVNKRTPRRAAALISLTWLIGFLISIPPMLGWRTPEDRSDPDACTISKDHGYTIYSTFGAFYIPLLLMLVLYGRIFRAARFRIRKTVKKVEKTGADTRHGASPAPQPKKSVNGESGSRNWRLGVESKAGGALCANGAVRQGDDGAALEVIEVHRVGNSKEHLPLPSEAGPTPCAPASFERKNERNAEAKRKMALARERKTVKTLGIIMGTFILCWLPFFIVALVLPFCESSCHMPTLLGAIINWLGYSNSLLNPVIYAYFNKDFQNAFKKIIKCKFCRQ
# Test: Radioligand binding ([3H]8-OH-DPAT) to 5-HT1A receptors in post-mortem human hippocampus membranes
compound,measurement,value
COc1ccc2[nH]cc(CCN(C)C)c2c1 [5-MeO-DMT],affinity for 5-HT1A receptors (in words),high affinity
